Experimental data as given in PMC9054212, “Discovery of 4-(2-(dimethylamino)ethoxy)benzohydrazide derivatives as prospective microtubule affinity regulating kinase 4 inhibitors” (RSC Advances, 2020).
Like-named read-outs stand apart in the source and are kept apart here.

Key:
[1] = test system: MARK4 and p-tau in MCF-7 cells; assay: Immunoblotting of MARK4 and p-tau in treated MCF-7 cells; type: cell-based, human; conditions: IC50 concentration, vs control
Description: The compound treated cell line samples were lysed in RIPA cell lysis buffer (Thermo Fisher Scientific, USA) in an ice-cold condition using ultrasonication. Total protein was isolated and protein estimation was performed using Bicinchoninic Acid Assay (BCA-protein estimation kit). Nearly 30–40 μg of whole protein lysate was diluted with 6× Laemmli's buffer, boiled for 3–5 min and resolved using 10–12% SDS-polyacrylamide electrophoresis under reducing conditions. The resolved polypeptides were transferred to polyvinylidene fluoride (PVDF) membrane through blotting, peptide-specific primary antibodies were used for identification and horseradish peroxidase coupled conjugates were used for visualization using luminol as a chemiluminescent substrate.[40]
Next, we tried to see the inhibition potential of these molecules at the cellular level. Cells were treated with IC50 concentration of each molecule and processed for the expression studied of MARK4 and p-tau (substrate of MARK4). […] Phosphorylation of tau correspondingly decreases in the treated cells as compared to control (Fig. 1B).

A549 cells [2] = assay: Trans-well cell migration assay, A549; type: cell-based, human; conditions: IC50 concentration, 24 h, Boyden chamber, vs control
Description: (§1) Trans-well migration assay was performed using a modified Boyden chamber containing cell culture inserts (8 μm pore size, polyethylene terephthalate track-etched membrane, BD Falcon #353093). Briefly, cells were serum-starved for 3–4 h, trypsinized and suspended in a serum-free medium. In the upper chamber of cell culture insert, an equal number of cells with the IC50 dose of selected compounds or DMSO (control) were plated and in the lower chamber of well plate, 10% FBS-DMEM (for chemotaxis movement) was added. The cells were allowed to migrate for 24 h in a humidified 5% CO2 incubator at 37 °C and the migrated cells (that invaded through membrane pores) onto the lower side of Trans-well cell culture insert were fixed with methanol and staining was performed using 0.4% crystal violet in 25% methanol. The remaining cells present on the upper side of the chamber were wiped off with the help of cell scrapper/tissue wipes. Finally, the migrated cells present on the lower surface of the cell culture insert were imaged using a light microscope and counted in 3–5 random fields.

MCF-7 cells [3] = assay: MTT cell proliferation assay, MCF-7; type: cell-based; conditions: Homo sapiens, read-out: IC50, cell proliferation, MCF-7 cells
Description: Human cell lines (HEK-293, A549 and MCF-7) were seeded and maintained in a medium supplemented with DMEM along with 10% heat-inactivated fetal bovine serum (Gibco) and 1% penicillin, streptomycin solution (Gibco), cultured in a 5% CO2 humidified incubator at 37 °C. Cell cultures were maintained and trypsinized regularly, not for more than 30 passages. MTT assay was carried out to see the effect of selected hydrazone compound treatment on the viability of non-cancerous (HEK-293) and cancerous cell lines (A549 and MCF-7) as per described method.[22,24] In brief, 6000–7000 cells per well were seeded in a 96-well plate and after 24 h growth, the cells were treated with increasing concentrations (0–200 μM) of each hydrazone (final volume of 200 μL) for 48 h at 37 °C in a humidified chamber. After 48 h, MTT was added (20 μL solution from 5 mg mL^−1 stock solution prepared in phosphate buffer saline, pH 7.4) to each well and plates were further incubated for 4–5 h at 37 °C in a CO2 incubator. The supernatant was aspirated and the formazan crystals were dissolved in 150 μL of DMSO. The absorbance (A) of final products was measured using multiplate ELISA reader (BioRad) at 570 nm. The percentage of cell viability was calculated and IC50 (50% inhibitory concentration) values of each hydrazone derivative were estimated (paclitaxel was taken as a positive control for cell proliferation studies).

MCF-7 cells [4] = assay: Trans-well cell migration assay, MCF-7; type: cell-based, human; conditions: IC50 concentration, 24 h, Boyden chamber, vs control
Description: as §1

A549 cells [5] = assay: Annexin-V/PI apoptosis assay by flow cytometry, A549; type: cell-based, human; conditions: IC50 concentration, 48 h
Description: Annexin-V staining was used to assess the apoptotic potential of the selected hydrazones as described.[22,41] Briefly, cells were treated with IC50 concentration of selected hydrazones for 24 h and control cells were treated with DMSO/culture medium only. After 24 h incubation, approximately 2.0–2.5 × 10^6 cells were collected by trypsinization and washed twice with PBS (5–10 mL). Finally, FITC labelled Annexin-V and PE labelled PI was used for staining the cells using the FITC-Annexin-V kit by following manufacture instructions (BD-Biosciences, USA). Nearly, 10 000 events were recorded using BD LSR II Flow Cytometry Analyzer and analyzed by FlowJo software.
Cancer cells support their growth and maintenance by evading the apoptotic pathways.[48] MARK4 regulates the cancer cell growth and proliferation via modulating the apoptotic pathways.[12,15,46] The treatment of MCF-7 and A549 cells with H4 and H19 inhibit the activity of MARK4, decreases cell proliferation and migration raises the evaluation of these MARK4 inhibitors for the apoptosis induction. Thus, to investigate whether the selected inhibitor induces cell death via apoptosis or not, we have performed Annexin-V/PI staining using flow cytometry. Cells were treated with IC50 concentration of each molecule for 48 h and processed for apoptosis analysis. […]

MCF-7 cells [6] = assay: Colony formation assay, MCF-7; type: cell-based, human; conditions: IC50 concentration, 10–12 days, vs control
Description: (§2) The colony-forming assay was performed to evaluate the effect of selected compounds on cell colonization potential of cancer cells. Briefly, cells were plated at a density of 1000–2000 (A549/MCf-7) cells per well in a six-well cell culture plate. Cells were grown for at least 24 h in cell growth medium and then incubated with IC50 concentration of selected compounds for 10–12 days at 37 °C (in a humidified 5% CO2 incubator). Control cells were treated with an equal percentage of DMSO. After 10–12 days, the cell colonies were fixed with 100% methanol and staining was performed using 0.4% crystal violet in 25% methanol. The colonies obtained was counted, plotted and compared with the controls.

A549 cells [7] = assay: Colony formation assay, A549; type: cell-based, human; conditions: IC50 concentration, 10–12 days, vs control
Description: as §2

| SMILES | protein level of MARK4 [1] | protein level of p-tau [1] | cell migration, A549 (A549 cells [2]) | IC50 (MCF-7 cells [3]; MCF7, MTT, 48 h, 0–200 μM) | cell migration, MCF-7 (MCF-7 cells [4]) | apoptosis induced, share of A549 cells (A549 cells [5]) | number of colonies, MCF-7 (MCF-7 cells [6]) | number of colonies, A549 (A549 cells [7]) | IC50 (MCF-7 cells [3]; MCF7, 48 h) |
| --- | --- | --- | --- | --- | --- | --- | --- | --- | --- |
| CN(C)CCOc1ccc(C(=O)NN=Cc2ccc(Cl)cc2)cc1 [H4] | decreases | decreases | lesser number of cells were migrated | 27.4 µM | lesser number of cells were migrated | 28.5% | significantly decreased | significantly decreased |  |
| Cc1cc(C)c(C=NNC(=O)c2ccc(OCCN(C)C)cc2)c(C)c1 [H19] | decreases | decreases | lesser number of cells were migrated |  | lesser number of cells were migrated | 24.25% | significantly decreased | significantly decreased | 34.4 µM |
